According to paper PMC9090415, “Discovery of small molecule inhibitors of Plasmodium falciparum apicoplast DNA polymerase” (Journal of Enzyme Inhibition and Medicinal Chemistry, 2022):

Molecular target: T1, bacteriophage T4 DNA polymerase (Enterobacteria phage T4, UniProt P04415)
T1 construct: made in house
T1 sequence (P04415 1-898): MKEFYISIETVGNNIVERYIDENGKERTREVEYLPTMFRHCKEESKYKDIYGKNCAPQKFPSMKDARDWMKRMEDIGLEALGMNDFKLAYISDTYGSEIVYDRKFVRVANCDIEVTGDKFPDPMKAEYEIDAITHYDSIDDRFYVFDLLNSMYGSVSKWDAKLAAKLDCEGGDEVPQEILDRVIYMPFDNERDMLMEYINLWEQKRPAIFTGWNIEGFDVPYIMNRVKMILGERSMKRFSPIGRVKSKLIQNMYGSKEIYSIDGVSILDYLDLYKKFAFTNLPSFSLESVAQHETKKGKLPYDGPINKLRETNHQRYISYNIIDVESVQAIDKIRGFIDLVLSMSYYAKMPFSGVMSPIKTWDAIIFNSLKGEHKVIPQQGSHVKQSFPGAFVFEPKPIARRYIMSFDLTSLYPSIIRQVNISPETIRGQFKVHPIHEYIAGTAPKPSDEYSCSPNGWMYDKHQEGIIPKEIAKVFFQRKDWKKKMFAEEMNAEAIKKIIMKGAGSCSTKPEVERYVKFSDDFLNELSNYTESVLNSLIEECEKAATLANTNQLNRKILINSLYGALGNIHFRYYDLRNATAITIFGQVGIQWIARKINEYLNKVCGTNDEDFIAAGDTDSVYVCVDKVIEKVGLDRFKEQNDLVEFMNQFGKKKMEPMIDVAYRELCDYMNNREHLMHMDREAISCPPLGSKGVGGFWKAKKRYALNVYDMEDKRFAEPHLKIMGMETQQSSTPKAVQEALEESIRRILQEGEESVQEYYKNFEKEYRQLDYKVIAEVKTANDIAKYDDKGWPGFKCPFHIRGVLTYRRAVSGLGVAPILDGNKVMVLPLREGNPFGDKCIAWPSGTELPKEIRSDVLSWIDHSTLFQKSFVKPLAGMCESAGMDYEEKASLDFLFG
Assay: Counter-screen against bacteriophage T4 DNA polymerase
Format: biochemical
Settings: DRC-2
Procedure, shortened: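 Purified T4 DNA polymerase, a B-family enzyme, served as the counter-screen enzyme. Compounds were tested in dose-response format and IC50 values were derived.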

Row | Compound | % inhibition T4 10' (concentration 20) | % inhibition T4 10' (concentration 40) | % inhibition T4 40' (concentration 10) | % inhibition T4 40' (concentration 20) | % inhibition T4 90' (concentration 5) | % inhibition T4 90' (concentration 10) | % inhibition T4 180' (concentration 20) | % inhibition T4 180' (concentration 80) | % inhibition T4 10' (concentration 80) | % inhibition T4 90' (concentration 2.5) | % inhibition T4 90' (concentration 80) | % inhibition T4 10' (concentration 2.5) | % inhibition T4 10' (concentration 5) | % inhibition T4 40' (concentration 2.5) | % inhibition T4 40' (concentration 5) | % inhibition T4 40' (concentration 40) | % inhibition T4 40' (concentration 80) | % inhibition T4 180' (concentration 40) | % inhibition T4 10' (concentration 10) | % inhibition T4 180' (concentration 5)
1 | COc1cccc(Oc2c(C(F)(F)F)oc3cc(OC(=O)N(C)C)ccc3c2=O)c1 [Molecule 52, COc1cccc(c1)Oc1c(=O)c2ccc(cc2oc1C(F)(F)F)OC(=O)N(C)C] | 10% | 17% | 7% | 10% | 3% | 7% | 3% | 17% |  |  |  |  |  |  |  |  |  |  |  | 
2 | CCC(C)NC(=O)c1cc(NC(C)=O)cc2nc(C)ccc12 (centres unmarked) [KU0206314] |  |  |  |  | 13% |  |  |  | 42% | 13% | 42% |  |  |  |  |  |  |  |  | 
3 | N#CC(=NNc1cc(C(F)(F)F)cc(C(F)(F)F)c1)C(=O)c1ccco1 [KU0264276] | 13% | 19% | 13% | 13% | 7% |  |  | 19% |  |  |  | 9% | 9% | 7% | 9% | 19% | 19% | 13% |  | 
4 | Cl.NC(CO)C(=O)NNCc1ccc(O)c(O)c1O (centres unmarked) [KU0260493] |  |  |  |  |  |  |  |  |  | -11% |  | -17% |  |  |  |  |  |  | -11% | -17%
